Measurements from patent publication US20220193084A1, “INHIBITORS OF EZH2 AND METHODS OF USE THEREOF” (Epizyme, Inc., priority 2015, published 2022).

Assays:
[1] = test system: relapsed refractory NHL; test: Phase 2 NHL trial: best response by molecular variant; type: in vivo, human
Experimental: Archive and cell-free tumor DNA collected from relapsed refractory NHL patients phase I and II trials, were tested in the NGS panel as described in Examples 1 and 2. The content of the panel included molecular variants occurring in NHL at ≥5% frequency. (Tables 15 and 17-19, FIGS. 19A-22C). […] Through correction of the background error by molecular bar coding the NHL specific plasma select panel was able to accurately detect mutations down to 0.1% allelic frequency (FIG. 13A and FIG. 13B). Translocations of ALK were detected in a cell-free DNA validation test set with samples from the phase I patients at a tumor purity of as low as 0.1% (FIG. 14). Sequencing of phase 1 NHL patients utilizing the 62 gene NHL NGS panel was completed for 10 archive tumor samples and 15 ctDNA samples (Table 15, FIG. 19A and FIG. 19B). In addition, microsatellite instability was monitored through the analysis of 5 distinct markers (BAT-25, BAT-26, MONO-27, NR-21 and NR-24), leading to one patient in the phase I trial being identified as microsatellite unstable based on the five tested markers (Table 15 and FIG. 19A and FIG. 19B, columns A16 and C16). Sequencing and an initial analysis of samples from patients in a phase 2 trial was completed with 58 archive tumor and 72 ctDNA baseline patient samples, wherein 48 of the archive tumor patients and 68 of the ctDNA patients were sequenced with reported response data.

[2] = Oral bioavailability; conditions: in vivo
[3] = phase 2, archive tumor, 6 patients with MYD88 (273P) mutations
[4] = phase 2, archive tumor, 9 patients with EZH2 mutations
[5] = phase 2, archive tumor, 13 patients with STAT6 mutations
[6] = phase 2, ctDNA variant allele frequencies of 0.1%, 6 patients with MYD88 (273P) mutations
[7] = phase 2, ctDNA variant allele frequencies of 0.1%, 11 patients with EZH2 mutations
[8] = phase 2, ctDNA variant allele frequencies of 0.1%, 14 patients with STAT6 mutations
[9] = phase 2, ctDNA variant allele frequencies of 0.1%, 18 patients with MYC mutations
[10] = phase 2, ctDNA variant allele frequencies of 1%, 5 patients with MYD88 (273P) mutations
[11] = phase 2, ctDNA variant allele frequencies of 1%, 8 patients with EZH2 mutations
[12] = phase 2, ctDNA variant allele frequencies of 1%, 10 patients with STAT6 mutations

CCN(c1cc(-c2ccc(CN3CCOCC3)cc2)cc(C(=O)NCc2c(C)cc(C)[nH]c2=O)c1C)C1CCOCC1 [tazemetostat]
4: best response PR, number of patients [1, 4] | best response SD, number of patients [1, 5] | best response PR, number of patients [1, 11] | best response PR, number of patients [1, 12] | best response SD, number of patients [1, 12]
5: best response PD, number of patients ([1]; phase 2, archive tumor, 7 patients with MYC mutations) | best response PR, number of patients [1, 5] | best response PR, number of patients [1, 7] | best response PR, number of patients [1, 8]
lack of response: response associated with MYC translocations ([1]; phase 2, archive tumor, 2 MYC translocations) | response associated with MYC translocations ([1]; phase 2, ctDNA variant allele frequencies of 0.1%, 5 MYC translocations) | response associated with MYC translocations ([1]; phase 2, ctDNA variant allele frequencies of 1%, 5 MYC translocations)
6: best response SD, number of patients [1, 8]
Complete Response: Response ([1]; Sample ID 20052004, STAT6 419D > A, vaf 30%, DLBCL GCB EZH2 Wild-type)
Partial Response: Response ([1]; Sample ID 10032007, STAT6 419D > G, vaf 36%, FL EZH2 Wild-type) | Response ([1]; Sample ID 10042005, STAT6 419D > G, vaf 19%, FL EZH2 Wild-type) | Response ([1]; Sample ID 10052001, STAT6 419D > G, vaf 24%, FL EZH2 Mutant) | Response ([1]; Sample ID 20022001, STAT6 377E > K, vaf 33%, FL EZH2 Mutant) | Response ([1]; Sample ID 20042003, STAT6 419D > A, vaf 39%, DLBCL GCB EZH2 Mutant)
Stable Disease: Response ([1]; Sample ID 10062002, STAT6 419D > G, vaf 29%, DLBCL GCB EZH2 Wild-type) | Response ([1]; Sample ID 20012001, STAT6 286Q > R, vaf 24%, DLBCL GCB EZH2 Wild-type) | Response ([1]; Sample ID 20012003, STAT6 417N > S, vaf 27%, DLBCL GCB EZH2 Wild-type) | Response ([1]; Sample ID 50022001, STAT6 419D > Y, vaf 39%, DLBCL non-GCB)
orally bioavailable: oral bioavailability [2]
2: best response PD, number of patients [1, 4] | best response CR, number of patients [1, 6] | best response PD, number of patients [1, 6] | best response SD, number of patients [1, 7] | best response PR, number of patients [1, 9] | best response CR, number of patients [1, 10] | best response PD, number of patients [1, 10] | best response PD, number of patients [1, 12]
1: best response PD, number of patients [1, 3] | best response PR, number of patients [1, 3] | best response CR, number of patients [1, 5] | best response PR, number of patients [1, 6] | best response SD, number of patients [1, 6] | best response PR, number of patients [1, 10] | best response SD, number of patients [1, 11]
Progressive Disease: Response ([1]; Sample ID 10012004, STAT6 419D > G, vaf 42%, DLBCL GCB EZH2 Wild-type) | Response ([1]; Sample ID 20022008, STAT6 371C > R, vaf 35%, FL EZH2 Wild-type) | Response ([1]; Sample ID 30022001, STAT6 419D > H, vaf 42%, DLBCL GCB EZH2 Wild-type)
3: best response CR, number of patients [1, 3] | best response SD, number of patients [1, 4] | best response PD, number of patients [1, 5] | best response PD, number of patients [1, 7] | best response PD, number of patients [1, 8] | best response SD, number of patients [1, 9] | best response PD, number of patients ([1]; phase 2, ctDNA variant allele frequencies of 1%, 5 patients with MYC mutations) | best response PD, number of patients [1, 11]
9: best response PD, number of patients [1, 9]
